These results are taken from PubChem BioAssay (NCI).

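Exposure lasted 48 hours, with cells grown in 96-well plates and compounds tested at five concentrations. GI50 marks 50% less growth. TGI: concentration producing complete growth inhibition.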

Common to all, as to assay: NCI tumour cell line growth inhibition, 48 h
The subject of test [1] is A549 NSCLC.
The test system of test [2] is CCRF-CEM leukemia.
Test [3] relates to SW-620 colon.
Test [4] relates to SK-OV-3 ovarian.
Test [5] deals with RXF 393 renal.
For test [6], the system named is MOLT-4 leukemia.
The test system of test [7] is HOP-92 NSCLC.
Test [8] has as its system HOP-62 NSCLC.
In test [9] the test system is PC-3 prostate.
Test [10] relates to DU-145 prostate.

As for `CC12CC(Sc3ccccc3N1)c1ccccc1O2` (configuration not stated), the TGI in test [1] was determined as 41.9 µM; in test [2] it was 36.5 µM; in test [3] it was 31.8 µM; in test [4] it was 58.4 µM; in [5] it was 30.2 µM; in test [6], 44.6 µM. The TGI in [7] was 35.2 µM; in test [8], 38.4 µM.

Turning to `CCOC(=O)c1nc2cc(C(F)(F)F)ccc2[n+]([O-])c1C`, the GI50 was over 100 µM in test [1]; 0.159 µM in [2]; over 100 µM in test [9]; over 100 µM in test [3]; over 100 µM in test [4]; 33.9 µM in test [5]. For the same molecule, the GI50 in test [10], in test [6] and in [8] was over 100 µM each time. For the same molecule, the TGI in test [1] was over 100 µM; in [2], 0.533 µM; in test [9], over 100 µM; in [3] it was over 100 µM; in [4] it was over 100 µM; in [5], over 100 µM. Also, the TGI in [10], in test [6] and in test [8] was over 100 µM in each case.

Regarding `CCN(CC)c1ccc(/C=C/C=C(/C#N)C(N)=S)cc1`, the GI50 was 5.94 µM in [1]; 3.16 µM in test [2]; 5.21 µM in test [9]; 15.4 µM in test [3]; over 100 µM in test [4]; 3.88 µM in test [10]. The GI50 in [6] was 2.19 µM; in [7], 10.8 µM; in test [8], 5.37 µM. The TGI in test [1] was over 100 µM; in test [2], 71.8 µM; in test [9], over 100 µM; in [3] it was over 100 µM; in [4] it was over 100 µM; in test [10], over 100 µM. Besides, the TGI turned out to be 12 µM in [6], 71.3 µM in test [7] and 32.3 µM in test [8].

With `COc1ccc(/C(=N/O)c2cc(OC)c(OC)c(OC)c2)c(OC)c1N`, the GI50 in test [1] is 8.21 µM; in test [2] it was 4.09 µM; in test [9] it was 3.97 µM; in [3], 4.42 µM; in test [4] it was 8.51 µM; in test [10], 4.67 µM. Besides, the figures for the GI50 in [6], in test [7] and in test [8] were 6.94 µM, over 100 µM and 6.55 µM, respectively. In addition, the TGI in [1], in [2], in test [9], in test [3], in test [4] and in test [10] was over 100 µM in each case. The TGI in test [6], in test [7] and in [8] was over 100 µM in each case.

For the molecule `CCOP(=O)(CC(=O)C1=C(O)C(CCCCNC(=O)OC(C)(C)C)N(Cc2ccccc2)C1=O)OCC` (configuration not stated), the TGI in test [1], in test [2], in test [4], in test [5], in test [6] and in test [8] was over 100 µM throughout.

With `Cc1cnc(SCCN2CCN(C)CC2)nc1-c1cc2ccccc2s1`, the TGI was 16 µM in test [1]; 14.2 µM in test [2]; 24.7 µM in [3]; 13.8 µM in test [4]; 22.7 µM in [5]; 7.5 µM in test [6]. For the same molecule, the TGI was found to be 18.3 µM in [7] and 4.81 µM in test [8].

For the molecule `Brc1ccc(C2SCc3nc4ccccc4n32)cc1` (configuration not stated), the TGI is over 100 µM in test [1]; over 100 µM in [2]; 29.2 µM in test [3]; 37.7 µM in test [4]; 20.9 µM in test [5]; over 100 µM in [6]. Further, the TGI in test [7] was determined as 9.66 µM; in test [8] it was 22.4 µM.

Consider `O=C(CC1C(=O)Nc2ccccc2S1(=O)=O)Nc1cccc(Cl)c1` (configuration not stated), for which the TGI turned out to be 40.8 µM in test [1]; 47.2 µM in test [2]; 31.6 µM in [3]; 31.7 µM in test [5]; 32.3 µM in test [6]; 32.2 µM in test [7].

With `Cc1ccc(S(=O)(=O)SCc2ccccc2)cc1`, the TGI in test [1] is over 100 µM; in test [2], 7.25 µM; in test [3] it was 14.7 µM; in [4] it was over 95.9 µM; in test [5], 69.2 µM; in test [6], 6.22 µM. Moreover, the TGI in test [7] is 60.9 µM; in test [8] it was over 79.3 µM.

For `CN1C(=O)C(=CN(C)c2ccccc2)C(=O)N(C)C1=O`, the TGI in [1], in [2], in [3], in test [5] and in test [6] was over 100 µM in each case.

On to `COC(=O)C(=O)C(CC(=O)Nc1cccc(C(F)(F)F)c1)C(=O)OC` (configuration not stated), for which the TGI in test [1], in [2], in test [3], in [4], in [5] and in test [6] was over 100 µM in each case. The TGI in [7] and in test [8] was over 100 µM in each case.

Consider `O=C(Nc1cccc(-n2cc(-c3ccncc3)c(-c3ccc(O)c(Cl)c3)n2)c1)c1ccc(Cl)c(Cl)c1`, for which the GI50 is 6.55 µM in test [1]; 4.08 µM in test [2]; 5.16 µM in test [9]; 3.89 µM in test [3]; 42.3 µM in test [4]; 20.9 µM in test [10]. Further, the GI50 in [6] is 7.19 µM; in [7], 2.33 µM; in test [8], 20.3 µM. Moreover, the TGI in test [1], in test [2], in [9], in test [3], in [4] and in test [10] was over 100 µM throughout. The results for the TGI in [6], in test [7] and in test [8] were over 100 µM, 28.4 µM and over 100 µM, respectively.

With `CCN(CC)CCC(=O)/C=C/c1ccc(C)cc1`, the TGI in test [1] is 34.5 µM; in [2], 56.1 µM; in [3], 14.9 µM; in test [4] it was 35.1 µM; in test [5], 29.2 µM; in [6] it was 38.2 µM. The TGI in test [7] came to 35.4 µM; in test [8], 71.1 µM.
